# Literature values, collected in patent US6080760A, “Alpha 1A adrenergic receptor antagonists” (Merck & Co., Inc., priority 1998, dated 2000).
# Key:
# prostatic hyperplasia = details: reported in EP 0 204597
# [1] = system: adrenergic receptors of the alpha1 subtype; details: reported in WO 92/0073
selective binding to adrenergic receptors of the alpha1 subtype [1],Structure (SMILES),urination in cases of prostatic hyperplasia (prostatic hyperplasia)
,COc1cc2nc(N(C)CCCNC(=O)C3CCCO3)nc(N)c2cc1OC (centres unmarked) [alfuzosin],induce urination
selective ability,COc1cc2nc(N3CCN(C(=O)[C@H]4CCCO4)CC3)nc(N)c2cc1OC [R(+) enantiomer of terazosin],
